Data on 1 molecule can be found in patent US6376673B1, “Piperidine derivatives as neurotransmitter re-uptake inhibitors” (Neurosearch A/S, priority 1997, dated 2002).

For orientation: IC50 means the concentration at which inhibition is half-maximal.

In this assay the target is T1, dopamine transporter (Rattus norvegicus, UniProt P23977).
T1 construct: Corpus striatum from male Wistar rats (150-200 g) is homogenized; from tissue; host or cells: rat corpus striatum membrane pellet
The assay is described as follows: In vitro inhibition of 3H-WIN 35428 binding. To be noted: corpus striatum membranes of male Wistar rats; 1 nM 3H-WIN 35428, 60 min at 2° C.; read-out: In Vitro IC50 (inhibition of specific binding of 3H-WIN 35428). An excerpt:
The compounds of the present invention have been tested for their ability to bind to the dopamine transporter in the following tests for in vitro inhibition of ^3H-WIN 35428.
In vitro Inhibition of ^3H-WIN 35428 Binding
Dopamine transporters/uptake sites on nerve terminals presumably function to terminate neuronal signaling by removing dopamine from the synaptic cleft. The activity or presence of the dopamine transporter integral protein can be measured in vitro with synaptosomal uptake of ^3H-dopamine or membrane binding assays with ^3H-ligands known to bind to the transporter.
Numerous ligands of several structural types have been reported to bind at the dopamine uptake site, but it remains questionable whether their binding sites are identical to that of cocaine. A structural analog og cocaine, ^3H-WIN 35428, binds selectively and with high affinity to the dopamine transporter complex.
Tissue preparation: Preparations are performed at 0-4° C. unless otherwise indicated. […]
Assay: Aliquots of 0.5 ml tissue are added to 25 ml of test solution and 25 ml of ^3H-WIN 35428 (1 nM, final concentration), mixed and incubated for 60 min at 2° C. Non-specific binding is determined using cocaine (30 mM, final concentration). […] The amount of radioactivity on the filters is determined by conventional liquid scintillation counting. […]

The structures appear in SMILES notation.

T1 sequence (P23977 whole entry): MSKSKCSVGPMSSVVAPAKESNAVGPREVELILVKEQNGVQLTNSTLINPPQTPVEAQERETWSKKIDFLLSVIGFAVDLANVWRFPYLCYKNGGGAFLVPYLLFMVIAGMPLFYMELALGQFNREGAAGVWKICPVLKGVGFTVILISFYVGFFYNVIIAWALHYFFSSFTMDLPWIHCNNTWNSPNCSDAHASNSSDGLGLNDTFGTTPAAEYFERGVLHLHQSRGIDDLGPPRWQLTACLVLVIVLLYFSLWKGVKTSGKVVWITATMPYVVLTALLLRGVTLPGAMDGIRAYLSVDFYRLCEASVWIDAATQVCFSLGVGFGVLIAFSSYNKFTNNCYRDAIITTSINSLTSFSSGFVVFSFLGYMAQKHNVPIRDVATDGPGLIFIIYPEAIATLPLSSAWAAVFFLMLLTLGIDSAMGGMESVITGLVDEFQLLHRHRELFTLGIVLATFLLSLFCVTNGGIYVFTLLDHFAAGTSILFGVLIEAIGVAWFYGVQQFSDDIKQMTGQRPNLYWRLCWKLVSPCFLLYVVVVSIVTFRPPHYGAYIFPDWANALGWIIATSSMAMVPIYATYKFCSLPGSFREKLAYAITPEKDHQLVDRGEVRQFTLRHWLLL

For `CON=CC1CN(C)CCC1c1ccc(Cl)c(Cl)c1` (stereo not shown) [1-Metyl-3-methoxyiminomethyl-4-(3,4-dichlorophenyl)piperidine], the IC50 was 16 nM.
